We go through 4 compounds from patent US20190269730A1, “REGULATABLE CELL LINES AND METHODS OF USE THEREOF” (Auxolytic Ltd, priority 2016, published 2019).

Test [1] has as its system UMPS edited human T cells. As to the kind of experiment: Growth of heterogeneous UMPS edited T cell population with/without exogenous uracil source (cell counts). The test is classed as cell-based. The settings on record: UMP or Uridine added at 250 ug/ml; no selection step; compared with mock edited and CCR5 targeted controls. How it is done:
Cells were cryopreserved in Bambanker medium. After thawing cells were cultured at 37° C., 5% CO2 in X-Vivo 15 (Lonza) supplemented with or without 5% human serum (Sigma-Aldrich) and 100 IU/ml human recombinant IL-2 (Peprotech) and 10 ng/ml human recombinant IL-7 (BD Biosciences). UMP or Uridine were added at 250 ug/ml. 5-FOA was added at 100 ug/ml to 1 mg/ml. During culture, medium was refreshed every 2 days. T cells were activated using immobilized Anti-CD3 (clone OKT3, Tonbo Biosciences) and soluble anti-CD28 (clone CD28.2, Tonbo Biosciences) for 3 days before electroporation. For the experiments in FIGS. 1, 3 and 4, 1.4 million activated T cells were electroporated. For the experiments in FIG. 2, 30,000 activated T cells were electroporated per condition. These cells were resuspended in electroporation solution, mixed with the pre-complexed RNP and electroporated using a 4D-Nucleofector (Lonza) using program EO-115. The RNP consisted of Cas9 protein (Alt-R® S. pyogenes, IDT) at 300 ug/ml and sgRNA using a sgRNA:Cas9 molar ratio of 2.5. Genomic DNA was harvested using QuickExtract (Epicentre). Cells were counted on an automated cell counter using Trypan blue staining or on a Cytoflex (Beckman Coulter) flow cytometer using CountBright beads (ThermoFisher) as a reference. Data was analyzed using Excel (Microsoft) and FlowJo (Tree Star). […]

For a further test, the system named is human T cells. In words: 5-FOA resistance assay of UMPS targeted vs mock targeted T cells (cell counts after 4 days). The format is cell-based. The following applies: for survival / viability of cells in 5-FOA: mock treated and UMPS targeted T cells grown in 5-FOA for 4 days, UMP or Uridine 250 ug/ml, 5% human serum. The procedure:
(§1) Cells were cryopreserved in Bambanker medium. After thawing cells were cultured at 37° C., 5% CO2 in X-Vivo 15 (Lonza) supplemented with or without 5% human serum (Sigma-Aldrich) and 100 IU/ml human recombinant IL-2 (Peprotech) and 10 ng/ml human recombinant IL-7 (BD Biosciences). UMP or Uridine were added at 250 ug/ml. 5-FOA was added at 100 ug/ml to 1 mg/ml. During culture, medium was refreshed every 2 days.
(§2) Genomic DNA was harvested using QuickExtract (Epicentre). Cells were counted on an automated cell counter using Trypan blue staining or on a Cytoflex (Beckman Coulter) flow cytometer using CountBright beads (ThermoFisher) as a reference. Data was analyzed using Excel (Microsoft) and FlowJo (Tree Star).
5-FOA selects for uracil auxotrophic cells in other organisms (e.g. Boeke et al. 1984, Mol. Gen. Genet. 197(2):345-6). To investigate the potential utility of 5-FOA for the selection of uracil auxotrophs in human cells, the UMPS gene was targeted in human T cells by Cas9-gRNA complex electroporation followed by recovery (as in Example 2) followed by an assay of resistance to 5-FOA treatment (FIG. 3A). Cells were grown in 5-FOA and a variety of combinations of serum and uracil sources for 4 days before cell counting was performed. […] This is likely through a competition based mechanism (uridine can reverse 5-fluorouracil toxicity in humans (van Groeningen et al. 1992, Semin. Oncol. 19(2 Suppl 3):148-54)) (FIGS. 3B and C).

In test [2] the test system is 5-FOA selected UMPS targeted T cells. As to the kind of experiment: Uracil auxotrophy growth assay of 5-FOA selected T cells (cell counts at day 8). The format is cell-based, human. The procedure:
as §1, §2
To assay whether or not the cells selected for by 5-FOA treatment are uracil auxotrophs, mock or UMPS targeted T cells were exposed to 5-FOA as in Example 4. Following 4 days of 5-FOA selection, the population of cells was split into a uracil containing media (either UMP, uridine or both) and a uracil deficient media. A growth assay was subsequently performed by cell counting after following 4 days incubation in test media (day 8) (FIG. 4A).

Structures are written as SMILES.

As to `O=c1ccn([C@@H]2O[C@H](COP(=O)(O)O)[C@@H](O)[C@H]2O)c(=O)[nH]1` [UMP], in test [1], the “growth of UMPS edited cells” value was “rescue the growth of UMPS edited cells to the same level as mock edited and CCR5 targeted controls”. The “survival / viability of cells in 5-FOA” value in the test with human T cells was “improved the survival of both mock treated and UMPS targeted cells in 5-FOA”.

As to `O=C(O)c1[nH]c(=O)[nH]c(=O)c1F` [5-FOA, 5-fluoroorotic acid], in the test on human T cells (UMPS targeted vs mock targeted T cells, 4 days of 5-FOA selection, 100 ug/ml to 1 mg/ml), the “toxicity of 5-FOA” value is “less toxic in UMPS targeted cell lines”. In test [2] (mock targeted T cell cultures, growth negligible after selection), the “killing of non-UMPS targeted cells during 5-FOA selection” value was “successful killing of non-UMPS targeted cells”.

On to `O=c1ccn([C@@H]2O[C@H](CO)[C@@H](O)[C@H]2O)c(=O)[nH]1` [uridine], for which, in test [1], the “growth of UMPS edited cells” value was “rescue the growth of UMPS edited cells to the same level as mock edited and CCR5 targeted controls”. Besides, the “survival / viability of cells in 5-FOA” value in the test with human T cells is “improved the survival of both mock treated and UMPS targeted cells in 5-FOA”.

In the case of `O=c1cc[nH]c(=O)[nH]1` [uracil], the “cell growth of 5-FOA selected UMPS targeted population” value in test [2] (4 days in uracil containing (UMP, uridine or both) vs uracil deficient media after 4 days of 5-FOA selection) is given as “cell growth was stimulated”.
